Measurements published in patent publication US9718769B2, “Pulverulent compositions of a complex between an acid and a metal and method of preparation thereof” (INNOV'IA 3I, priority 2012, dated 2017).
Entries after “also recorded” stand apart in the source; their conditions may differ. Marks after values point to notes of the source that are not given here.

Tests used:
growing chickens [1] = test: Feeding growing chickens: apparent digestibility of nutrients; format: in vivo; details: 0.3% in feed; for Apparent digestibility of ash / Apparent digestibility of crude fats / Apparent digestibility of crude proteins / Apparent digestibility of dry matter: 46-day chickens, mean ± standard deviation for 10 chickens
Protocol: (§1) One hundred and forty-seven commercial chickens (1 day old, 48 g) were housed from day 1 to day 46, including the starting phase (days 1-21) and the finishing phase (days 22-46). All the chickens were randomly distributed in seven equal groups (21 per group), and each group was made up of three subgroups of 7 birds each. Each subgroup was kept in an enclosure at a temperature of (28±2° C.), with controlled lighting conditions. All the chickens were offered a similar basic diet, with or without addition of DLM, HMTBA or HMTBA-Ca at levels of 0 (control) or 0.3% in the starting phase and 0 or 0.24% in the finishing phase (Table 4). All the chickens had free access to food and drinking water throughout the test period of 46 days. The weight of the chickens was measured every week and food intake was monitored throughout the experiment.
The excrement of the chickens was collected for the 3 days following the 42nd day of the experiment, were frozen and stored (at −20° C.) for later chemical analyses.

laying hens = test: Feeding laying hens: laying performance and egg parameters; format: in vivo; details: for Albumen / Average weight of the eggs / Consumption index / Daily food intake / Laying frequency / Weight of eggs / Yolk / Final body weight: 0.13% methionine equivalent in feed, mean; for Final body weight: after 6 weeks
Protocol: Eighty laying hens aged 45 weeks were housed for 6 weeks and were distributed at random into […] equal groups (20 per group). Each hen was kept in an individual cage at a temperature of (20±2° C.) with controlled lighting conditions. All the hens were offered a similar basic diet, with or without addition of DLM, of HMTBA-Ca or of a 50/50 mixture (HMTBA-Ca: […] All the laying hens had free access to drinking water and were fed throughout the 6-week period of the experiment.

growing chickens [2] = test: Feeding growing chickens: composition of the carcass; format: in vivo; details: for DB, weight of the muscles of the breast / DL, weight of the muscles of the thigh / PDAT, ratio of the weight of the abdominal fat to that of the eviscerated chicken / PDB, ratio of the weight of the muscles of the breast (without bone or skin) to that of the eviscerated chicken / PDL, ratio of the weight of the muscles of the thigh (without bone or skin) to that of the eviscerated chicken: 46-day chickens, mean ± standard deviation
Protocol: as §1
(§2) At the end of the experiment, the birds were weighed individually and sacrificed. The abdominal fat, the muscles of the thigh and of the breast were taken, lyophilized and weighed.

growing chickens [3] = test: Feeding growing chickens: growth performance; format: in vivo; details: 46-day-old chickens, 0.3% in feed (0.24% finishing phase); mean ± standard deviation
Protocol: as §1, §2

[4] = Crystallinity by DSC in isothermal mode and X-ray diffraction; format: physicochemical; details: deduced from DSC (R) or X-ray diffraction (T7)
Protocol: Samples T7 and R were analysed by X-ray diffraction using a Bruker APEX-II Quasar diffractometer equipped with a molybdenum microsource (λ=0.71073 Å). Each sample was ground beforehand in a mortar for two minutes. Each of the powders thus obtained is then transferred to a capillary with diameter of 0.5 mm that is transparent to X-rays, and is then mounted on a goniometer. The recording characteristics are perfectly identical for each sample, namely: […]

SMILES | Apparent digestibility of ash (growing chickens [1]) | Apparent digestibility of crude fats (growing chickens [1]) | Apparent digestibility of crude proteins (growing chickens [1]) | Apparent digestibility of dry matter (growing chickens [1]) | Albumen (laying hens; 6 weeks) | Average weight of the eggs (laying hens; 6 weeks) | Consumption index (laying hens; 6 weeks) | Daily food intake (laying hens; 6 weeks) | Laying frequency (laying hens; 6 weeks) | Weight of eggs (laying hens; 6 weeks) | Yolk (laying hens; 6 weeks) | Final body weight (laying hens) | DB, weight of the muscles of the breast (growing chickens [2]; 0.3% in feed) | DL, weight of the muscles of the thigh (growing chickens [2]; 0.3% in feed) | PDAT, ratio of the weight of the abdominal fat to that of the eviscerated chicken (growing chickens [2]; 0.3% in feed) | PDB, ratio of the weight of the muscles of the breast (without bone or skin) to that of the eviscerated chicken (growing chickens [2]; 0.3% in feed) | PDL, ratio of the weight of the muscles of the thigh (without bone or skin) to that of the eviscerated chicken (growing chickens [2]; 0.3% in feed) | Feeding:gain (growing chickens [3]) | Final body weight (growing chickens [3]) | Food intake (growing chickens [3]) | other results
CSCCC(O)C(=O)[O-].CSCCC(O)C(=O)[O-].[Ca+2] (stereo not drawn) [HMTBA-Ca, (HMTBA)2Ca] | 44.62 ± 0.89^a % | 90.28 ± 0.20^c % | 66.44 ± 0.37^cd % | 81.80 ± 0.32^d % | 39.53 g/egg | 64.9 g/egg | 1.82 g feed/g egg | 112.7 g/day | 95% | 62.0 g/day | 16.47 g/egg | 1897.2 g/hen | 617.54 ± 45.21^bc g | 588.64 ± 38.07^ab g | 2.49 ± 0.59^b % | 22.98 ± 3.00^b % | 22.06 ± 1.64^c % | 1.91 ± 0.12 g:g | 3.38 ± 0.28^ab kg/chicken | 144.53 ± 20.93 g/chicken/day | Digestibility of the nutrients relative to the other two forms of methionine (in words) (growing chickens [1]; chickens, 46 days): far better digestibility; Albumen content of the eggs, more relative to the eggs of hens fed with DLM (laying hens; 6 weeks, relative to DLM): 3%; Average weight of the eggs, higher relative to that obtained with DLM (laying hens; 6 weeks, relative to DLM): 2.3%; Percentage of abdominal fat (in words) (growing chickens [2]; chickens, 0.3% in feed, 46 days): increase in the percentage of abdominal fat; Weight of the muscles of the thigh and breast relative to DLM / the other groups (in words) (growing chickens [2]; chickens, 46 days): significantly higher; also recorded: highest weight of muscles of the thigh and breast; Gain in body weight (growing chickens [3]): 75.08 ± 6.18^ab g/chicken/day
CSCCC(N)C(=O)O (racemic) [DLM, DL-methionine, reference compound] | 56.02 ± 1.01^b % | 86.15 ± 0.93% | 63.70 ± 2.85^cd % | 78.22 ± 1.70^c % | 38.38 g/egg | 63.4 g/egg | 1.87 g feed/g egg | 112.4 g/day | 95% | 60.3 g/day | 16.38 g/egg | 1834.9 g/hen | 596.88 ± 56.68^abc g | 586.03 ± 23.43^ab g | 1.88 ± 0.43^a % | 22.77 ± 1.44^b % | 20.12 ± 0.22^a % | 2.01 ± 0.10 g:g | 3.17 ± 0.15^ab kg/chicken | 141.51 ± 0.24 g/chicken/day | Gain in body weight (growing chickens [3]): 70.47 ± 3.37^ab g/chicken/day
CSCCC(O)C(=O)[O-].CSCCC(O)C(=O)[O-].[Ca+2] (stereo not drawn) [R, (HMTBA)2Ca] |  |  |  |  |  |  |  |  |  |  |  |  |  |  |  |  |  |  |  |  | Degree of crystallinity [4]: 100%
